The results in this text go back to ChEMBL document CHEMBL1129506, “2,4-Diarylpyrrolidine-3-carboxylic acids--potent ETA selective endothelin receptor antagonists. 1. Discovery of A-127722” (J Med Chem, 1996).

Test [1] has as its target T1, Endothelin receptor type B (Sus scrofa, UniProt P35463).
T1 sequence (P35463 whole entry): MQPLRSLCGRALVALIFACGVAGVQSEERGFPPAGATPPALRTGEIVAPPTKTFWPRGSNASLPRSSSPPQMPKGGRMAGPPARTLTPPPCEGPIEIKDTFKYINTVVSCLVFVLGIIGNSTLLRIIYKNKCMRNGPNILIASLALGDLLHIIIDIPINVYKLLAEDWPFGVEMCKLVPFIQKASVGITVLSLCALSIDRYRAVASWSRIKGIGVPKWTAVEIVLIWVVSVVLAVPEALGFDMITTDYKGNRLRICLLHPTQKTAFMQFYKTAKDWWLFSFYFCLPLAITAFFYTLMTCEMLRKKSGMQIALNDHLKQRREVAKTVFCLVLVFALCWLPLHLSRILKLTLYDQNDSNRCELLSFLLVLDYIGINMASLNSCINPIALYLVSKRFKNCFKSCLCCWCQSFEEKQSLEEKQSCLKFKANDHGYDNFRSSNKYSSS
Nature of the test: Inhibitory activity measured against Endothelin B receptor binding to porcine cerebellum. In kind it is tissue-based.

Test [2] has as its target T2, Endothelin receptor type B (Homo sapiens, UniProt P24530).
T2 sequence (P24530 whole entry): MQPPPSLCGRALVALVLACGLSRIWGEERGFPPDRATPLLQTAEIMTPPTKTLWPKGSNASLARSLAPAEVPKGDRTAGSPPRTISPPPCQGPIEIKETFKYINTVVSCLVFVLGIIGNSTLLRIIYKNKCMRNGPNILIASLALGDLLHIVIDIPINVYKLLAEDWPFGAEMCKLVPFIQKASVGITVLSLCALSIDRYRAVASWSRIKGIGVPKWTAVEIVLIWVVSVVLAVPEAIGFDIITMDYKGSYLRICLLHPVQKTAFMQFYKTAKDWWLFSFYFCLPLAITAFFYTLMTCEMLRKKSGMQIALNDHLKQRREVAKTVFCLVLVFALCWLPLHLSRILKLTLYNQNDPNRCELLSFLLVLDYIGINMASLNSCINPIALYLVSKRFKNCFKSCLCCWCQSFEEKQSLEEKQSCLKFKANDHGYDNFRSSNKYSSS
Nature of the test: Radioligand binding selectivity to human Endothelin B receptor in chinese hamster ovary cells. In kind it is cell-based, CHO.

Test [3] addresses T3, Endothelin-1 receptor (Rattus norvegicus, UniProt P26684).
T3 sequence (P26684 whole entry): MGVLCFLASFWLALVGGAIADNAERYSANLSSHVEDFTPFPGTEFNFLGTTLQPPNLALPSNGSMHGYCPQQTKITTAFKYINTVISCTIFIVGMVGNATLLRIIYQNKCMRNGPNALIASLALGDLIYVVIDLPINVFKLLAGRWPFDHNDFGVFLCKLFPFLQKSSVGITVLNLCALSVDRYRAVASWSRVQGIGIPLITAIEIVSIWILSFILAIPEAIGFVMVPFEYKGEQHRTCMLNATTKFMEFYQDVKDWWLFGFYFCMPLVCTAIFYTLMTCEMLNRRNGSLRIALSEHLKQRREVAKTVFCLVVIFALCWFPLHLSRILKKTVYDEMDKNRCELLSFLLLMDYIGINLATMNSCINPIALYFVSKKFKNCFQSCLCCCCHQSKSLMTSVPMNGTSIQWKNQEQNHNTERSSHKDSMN
Nature of the test: Inhibitory activity against the Endothelin A receptor of rat MMQ cells. Type of test: cell-based.

Test [4] has as its target T4, Endothelin-1 receptor (Homo sapiens, UniProt P25101).
T4 sequence (P25101 whole entry): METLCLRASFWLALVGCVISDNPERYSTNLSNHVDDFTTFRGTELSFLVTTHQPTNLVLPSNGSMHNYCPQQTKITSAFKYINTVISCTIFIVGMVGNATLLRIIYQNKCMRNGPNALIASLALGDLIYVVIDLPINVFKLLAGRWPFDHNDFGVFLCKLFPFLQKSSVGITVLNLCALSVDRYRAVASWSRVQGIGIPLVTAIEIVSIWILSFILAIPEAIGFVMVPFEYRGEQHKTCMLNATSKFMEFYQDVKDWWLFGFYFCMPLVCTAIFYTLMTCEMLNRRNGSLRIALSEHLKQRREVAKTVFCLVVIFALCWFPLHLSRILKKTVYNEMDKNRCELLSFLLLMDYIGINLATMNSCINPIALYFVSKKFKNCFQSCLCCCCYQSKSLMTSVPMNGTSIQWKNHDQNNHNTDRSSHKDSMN
Nature of the test: Radioligand binding selectivity to human Endothelin A receptor in chinese hamster ovary cells. In kind it is cell-based, CHO.

In the next test the target is T5, Endothelin receptor (Rattus norvegicus, UniProt P26684+P21451).
T5 sequence (P26684 whole entry): T3 sequence (P26684 whole entry)
T5 sequence (P21451 whole entry): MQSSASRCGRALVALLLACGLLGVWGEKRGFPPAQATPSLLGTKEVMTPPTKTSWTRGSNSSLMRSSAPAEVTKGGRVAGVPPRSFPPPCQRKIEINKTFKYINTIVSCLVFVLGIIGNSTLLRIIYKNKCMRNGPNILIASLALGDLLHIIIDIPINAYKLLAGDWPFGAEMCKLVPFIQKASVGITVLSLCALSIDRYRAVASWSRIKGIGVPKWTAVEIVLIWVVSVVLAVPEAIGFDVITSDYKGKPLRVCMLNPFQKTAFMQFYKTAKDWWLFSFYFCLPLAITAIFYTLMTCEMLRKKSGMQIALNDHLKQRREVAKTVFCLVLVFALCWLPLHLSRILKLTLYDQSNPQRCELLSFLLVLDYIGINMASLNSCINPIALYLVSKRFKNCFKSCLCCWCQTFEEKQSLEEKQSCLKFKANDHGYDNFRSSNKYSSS
Nature of the test: Inhibition of phosphoinositol hydrolysis of MMQ cells. Type of test: functional, cell-based.

Test [5] concerns the target T1, Endothelin receptor type B. The test is described as follows: Inhibitory activity was measured against Endothelin B receptor binding to porcine cerebellum; inactive. In kind it is tissue-based.
For test [6], the target named is T2, Endothelin receptor type B. Nature of the test: Inhibitory activity against human Endothelin B receptor in chinese hamster ovary cells. Type of test: cell-based, CHO.
The target in test [7] is T4, Endothelin-1 receptor. The test is described as follows: Inhibitory activity against human Endothelin A receptor in chinese hamster ovary cells. In kind it is cell-based, CHO.

pIC50, pKi: −log10 of the molar value.

As to `CCCN(C)C(=O)CN1C[C@@H](c2ccc3c(c2)OCO3)[C@H](C(=O)O)[C@H]1c1ccc(OC)cc1`, the pIC50 is 5.54 in test [1], 5.34 in test [2], 8.18 on Endothelin-1 receptor [3] and 7.67 on Endothelin-1 receptor [4]. The molecule also showed an IC50 on Endothelin receptor of 9.12 nM.
For `CCCCCCN(C)C(=O)CN1C[C@@H](c2ccc3c(c2)OCO3)[C@H](C(=O)O)[C@H]1c1ccc(OC)cc1`, the pIC50 is 6.39 in test [1] and 8.12 against Endothelin-1 receptor [3]. In addition, on Endothelin receptor, the IC50 is on record as 1 nM.
With `CCCCN(C)C(=O)CN1C[C@@H](c2ccc3c(c2)OCO3)[C@H](C(=O)O)[C@H]1c1ccc(OC)cc1`, the pIC50 in test [1] was 5.86; in test [2], 5.97; on Endothelin-1 receptor [3], 8.33; at Endothelin-1 receptor [4] it was 8.31. In addition, at Endothelin receptor, the IC50 worked out at 0.97 nM.
Take `CCCCNC(=O)CN1C[C@@H](c2ccc3c(c2)OCO3)[C@H](C(=O)O)[C@H]1c1ccc(OC)cc1`: the values for the pIC50 (in test [1]; on Endothelin-1 receptor [3]) were 5.90 and 7.37, respectively. The IC50 against Endothelin receptor is given as 10 nM.
As to `CCCCN(CCCC)C(=O)CN1CC(c2ccc3c(c2)OCO3)C(C(N)=O)C1c1ccc(OC)cc1` (stereo not drawn), the IC50 result in test [5] was “Not Active”. This molecule had a pIC50 against Endothelin-1 receptor [3] of 7.24.
Regarding `COc1ccc([C@@H]2[C@@H](C(=O)O)[C@H](c3ccc4c(c3)OCO4)CN2CC(=O)N(C)CC(C)C)cc1`, the pIC50 in test [1] is 5.98; against Endothelin-1 receptor [3], 8.73. For the same molecule, the IC50 against Endothelin receptor is recorded as 0.28 nM.
`CCCN(CCC)C(=O)CN1C[C@@H](c2ccc3c(c2)OCO3)[C@H](C(=O)O)[C@H]1c1ccc(OC)cc1`: the pIC50 in test [1] was 6.22; in test [2], 6.40; on Endothelin-1 receptor [4], 9.26. On Endothelin receptor, this molecule registered an IC50 of 0.24 nM.
Regarding `CCCNC(=O)CN1C[C@@H](c2ccc3c(c2)OCO3)[C@H](C(=O)O)[C@H]1c1ccc(OC)cc1`, the pIC50 was 6.40 in test [1], 6.24 in test [2], 7.76 at Endothelin-1 receptor [3] and 7.34 on Endothelin-1 receptor [4]. The molecule further gave an IC50 against Endothelin receptor of 24.6 nM.
For the molecule `CCN(CC)C(=O)CN1C[C@@H](c2ccc3c(c2)OCO3)[C@H](C(=O)O)[C@H]1c1ccc(OC)cc1`, the results for the pIC50 (in test [1]; against Endothelin-1 receptor [3]) were 5.28 and 7.48, respectively. This molecule also registered an IC50 against Endothelin receptor of 2.26 nM.
For `COCCN(CCOC)C(=O)CN1C[C@@H](c2ccc3c(c2)OCO3)[C@H](C(=O)O)[C@H]1c1ccc(OC)cc1` the same measures were 5.97, 8.35 and 4.91 nM.
For `CCCCN(CCC)C(=O)CN1C[C@@H](c2ccc3c(c2)OCO3)[C@H](C(=O)O)[C@H]1c1ccc(OC)cc1`, the pIC50 was 7.40 in test [1], 6.68 in test [2], 9.66 at Endothelin-1 receptor [3] and 9.09 at Endothelin-1 receptor [4]. At Endothelin receptor, the IC50 is 0.25 nM.
For `C=CCNC(=O)CN1C[C@@H](c2ccc3c(c2)OCO3)[C@H](C(=O)O)[C@H]1c1ccc(OC)cc1`, the pIC50 in test [1] was 6.05; against Endothelin-1 receptor [3], 7.47. Further, at Endothelin receptor, the IC50 was found to be 16.5 nM.
In test [6], `Cc1noc(NS(=O)(=O)c2cccc3c(N(C)C)cccc23)c1C` [BMS-182874] had a pKi of less than 4.30.
As to `CCCc1cc(C(=O)O)ccc1OC(C(=O)NS(=O)(=O)c1ccc(C(C)C)cc1)c1ccc2c(c1)OCO2` [L-754142], the pKi in test [6] is 8.27; on Endothelin-1 receptor [7] it was 9.89.
The molecule `COc1ccc(C2(O)OC(=O)C(c3ccc4c(c3)OCO4)=C2Cc2cc(OC)c(OC)c(OC)c2)cc1` (stereo not drawn) [PD-156707] gave a pKi in test [6] of 6.86.

What is called pIC50 is the negative decadic logarithm of the IC50, by convention in mol/L. High values mean a small IC50, low ones a large IC50. Usually IC50 stands for the point on the concentration scale where inhibition reaches its midpoint. A lower IC50 goes with inhibition by little substance. In general, pKi refers to −log10 of the Ki, conventionally taken in molar units. A lower pKi goes with a high Ki.
